Measurements as given in US20230201157A1, “COMPOSITIONS OF CANNABINOIDS AND METHODS OF USING SAME” (ASANA BIO GROUP LTD., priority 2020, published 2023).

How the values were obtained:
[1] = tested on: RAW 264.7 cells; test: Nitric oxide detection assay (Griess) in LPS-stimulated cells; format: cell-based, mouse; conditions: for nitric oxide production: 50 µM of single cannabinoid (FIG. 1); for nitric oxide production while minimally affecting cell viability: lower dose, 25 µM, compared with effect at 50 µM (FIG. 1)
Description: (§1) Cell lines were cultured according to standard mammalian tissue culture protocols and sterile technique. Adherent human epithelial endometriosis 12Z and mouse monocytes RAW 264.7 cell lines were cultured in high glucose Dulbecco’s Modified Eagle Medium (DMEM) supplemented with 1% sodium pyruvate. Human monocytes THP-1 cell line were cultured in RPMI medium 1640. All media was supplemented with 10% fetal bovine serum, streptomycin […], penicillin (100 U/ml) and Nystatin (12.5 U/ml). Cells were incubated in 5% CO2 at 37° C. All tissue culture cells were maintained in 75 cm^2 cell culture treated flask (Eppendorf) and all the media and supplements were obtained from Biological Industries. Treatment were performed by plating cells in a 96 micro well delta surface plates (Eppendorf) in a starting confluence of 1 × 10^4 cells/well.
RAW 264.7 cells were seeded in a 96-well plate at a density of 1 × 10^4 cells/well (n=4) in 100 µl cell specific media (DMEM high glucose supplemented with 10% FBS, 1% PSN and 1% Sodium pyruvate). After 24 hours, cells were treated with varying concentrations of cannabis samples using specific media containing 5% FBS. After 1 hour, treated and untreated cells, were stimulated by Lipopolysaccharides (LPS) at a final concentration of 1 µg/ml. Cells supernatants were harvest after 24 h for nitric oxide radical (NO•) assay by addition of 50 µl of the supernatant to an equal volume of Griess reagent (1% sulfanilamide, 0.1% naphthalene diamine and 2% H3PO4). After 10 min of incubation, the resultant color was measured at 540 nm. Results were presented as proportional (%) by comparing between treated and untreated groups. Anti-inflammatory potential of an extract in preventing Nitric oxide production was determined by the ratio between nitric oxide and cell viability values: Ratio < 0.5 = High effect; Ratio between 0.5-0.7 = Moderate effect; Ratio […] = Low effect; and Ratio > 1 = No effect.

[2] = tested on: RAW 264.7 cells; test: MTT viability assay; format: cell-based, mouse; conditions: for cell viability: 50 µM of single cannabinoid (FIG. 1)
Description: as §1
The viability of the cells following treatment was determined using a commercially available MTT assay kit (Abcam, ab 146345) and performed according to manufacturer’s instructions. Briefly, cells were seeded in a 96-well plate at a density of 1 × 10^4 cells/well (n=4) in 100 µl cell specific media. After overnight plating, cells were exposed to varying concentrations of cannabis samples in 100 µl of specific media. Then, plates were incubated in a humidified atmosphere containing 5% CO2 in air at 37° C. for 24 hours. According to the MTT standard protocol, after 24 h treatment, the media was removed, and all cells were incubated with serum-free media containing 0.5 mg/ml MTT for 4 hours at the incubator. The MTT purple crystals formed by the viable cells were dissolved using isopropanol containing 0.04 mol/L HCl. The quantification was determined by measuring the optical density at 570 nm in a spectrophotometer reader (Spark, Tecan). Results were presented as proportional viability (%) by comparing between treated and untreated groups. Cytotoxic potential of an extract was determined according to the following criteria: Non-cytotoxic -Viability is ≥ 70% of vehicle control; Cytotoxic - Viability is reduced to less than 70% of vehicle control.

CCCCCc1cc(O)c(C/C=C(\C)CCC=C(C)C)c(O)c1 [CBG, cannabigerol]
nitric oxide production [1]: reduced nitric oxide production

CCCCCc1cc(O)c2c(c1)OC(C)(C)c1ccc(C)cc1-2 [CBN, cannabinol]
nitric oxide production [1]: reduced nitric oxide production
cell viability [2]: minimally affecting cell viability or not affecting cell viability at all

CCCc1cc2c(c(O)c1C(=O)O)[C@@H]1C=C(C)CC[C@H]1C(C)(C)O2 [THCVA, tetrahydrocannabivarinic acid]
nitric oxide production [1]: reduced nitric oxide production
cell viability [2]: minimally affecting cell viability or not affecting cell viability at all

CCCCCc1cc2c(c(O)c1C(=O)O)C=CC(C)(CCC=C(C)C)O2 (stereo not drawn) [CBCA, cannabichromenic acid]
nitric oxide production [1]: reduced nitric oxide production
nitric oxide production while minimally affecting cell viability [1]: comparable effect
cell viability [2]: minimally affecting cell viability or not affecting cell viability at all

CCCCCc1cc2c(c(O)c1C(=O)O)[C@@H]1C=C(C)CC[C@H]1C(C)(C)O2 [THCA, tetrahydrocannabinolic acid]
nitric oxide production [1]: reduced nitric oxide production
cell viability [2]: minimally affecting cell viability or not affecting cell viability at all

CCCCCc1cc(O)c2c(c1)OC(C)(CCC=C(C)C)C=C2 (stereo not drawn) [CBC, cannabichromene]
nitric oxide production [1]: reduced nitric oxide production
cell viability [2]: minimally affecting cell viability or not affecting cell viability at all

O=c1cc(-c2ccc(O)cc2)oc2cc(O)cc(O)c12 [Apigenin, apigenin]
cell viability (exception to 'no substantial effect on cell viability') ([2]; mouse, 24 h, 50 µM): excluding 50 µM of Apigenin

CCCCCc1cc2c(c(O)c1C(=O)O)-c1cc(C)ccc1C(C)(C)O2 [CBNA, cannabinolic acid]
nitric oxide production [1]: reduced nitric oxide production
nitric oxide production while minimally affecting cell viability [1]: comparable effect
cell viability [2]: minimally affecting cell viability or not affecting cell viability at all

CCCc1cc(O)c2c(c1)OC(C)(C)[C@@H]1CCC(C)=C[C@@H]21 [THCV, tetrahydrocannabivarin]
nitric oxide production [1]: reduced nitric oxide production
cell viability [2]: minimally affecting cell viability or not affecting cell viability at all
